From ChEMBL document CHEMBL5465560, “Selectivity Literature for EUbOPEN Chemogenomic Library” (2024)

Legend:
[1] = molecular target: eIF-2-alpha kinase GCN2 (Homo sapiens) (UniProt Q9P2K8); assay: Selectivity interaction (ActivX KiNativ screen (kinase selectivity in THP-1 cell lysates)) EUB0000639a EIF2AK4; format: subcellular; settings: lysate, at 0.2 µM
[2] = molecular target: Dual specificity protein kinase CLK2 (Homo sapiens, UniProt P49760); assay: Selectivity interaction (ActivX KiNativ screen (kinase selectivity in THP-1 cell lysates)) EUB0000639a CLK2; format: subcellular; settings: lysate
Chain of Dual specificity protein kinase CLK2 (P49760 whole entry, looked up): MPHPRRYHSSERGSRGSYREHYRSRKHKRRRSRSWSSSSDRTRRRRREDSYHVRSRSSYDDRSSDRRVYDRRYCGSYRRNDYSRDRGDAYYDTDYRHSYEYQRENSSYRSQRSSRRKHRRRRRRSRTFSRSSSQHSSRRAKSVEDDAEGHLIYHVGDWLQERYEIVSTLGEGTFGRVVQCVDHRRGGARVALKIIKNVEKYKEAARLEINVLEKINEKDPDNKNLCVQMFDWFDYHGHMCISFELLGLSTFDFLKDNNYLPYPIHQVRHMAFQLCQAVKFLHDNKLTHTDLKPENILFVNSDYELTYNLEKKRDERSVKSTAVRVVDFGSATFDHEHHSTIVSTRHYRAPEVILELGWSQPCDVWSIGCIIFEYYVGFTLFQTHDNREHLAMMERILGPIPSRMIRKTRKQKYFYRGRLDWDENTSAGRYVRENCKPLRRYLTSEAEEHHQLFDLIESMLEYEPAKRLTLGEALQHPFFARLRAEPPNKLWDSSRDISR

[3] = molecular target: T1, Serine/threonine-protein kinase Nek1 (Homo sapiens) (UniProt Q96PY6); assay: Selectivity interaction (Kinase panel (Invitrogen)) EUB0000639a NEK1; settings: at 200 nM
T1 sequence (whole entry): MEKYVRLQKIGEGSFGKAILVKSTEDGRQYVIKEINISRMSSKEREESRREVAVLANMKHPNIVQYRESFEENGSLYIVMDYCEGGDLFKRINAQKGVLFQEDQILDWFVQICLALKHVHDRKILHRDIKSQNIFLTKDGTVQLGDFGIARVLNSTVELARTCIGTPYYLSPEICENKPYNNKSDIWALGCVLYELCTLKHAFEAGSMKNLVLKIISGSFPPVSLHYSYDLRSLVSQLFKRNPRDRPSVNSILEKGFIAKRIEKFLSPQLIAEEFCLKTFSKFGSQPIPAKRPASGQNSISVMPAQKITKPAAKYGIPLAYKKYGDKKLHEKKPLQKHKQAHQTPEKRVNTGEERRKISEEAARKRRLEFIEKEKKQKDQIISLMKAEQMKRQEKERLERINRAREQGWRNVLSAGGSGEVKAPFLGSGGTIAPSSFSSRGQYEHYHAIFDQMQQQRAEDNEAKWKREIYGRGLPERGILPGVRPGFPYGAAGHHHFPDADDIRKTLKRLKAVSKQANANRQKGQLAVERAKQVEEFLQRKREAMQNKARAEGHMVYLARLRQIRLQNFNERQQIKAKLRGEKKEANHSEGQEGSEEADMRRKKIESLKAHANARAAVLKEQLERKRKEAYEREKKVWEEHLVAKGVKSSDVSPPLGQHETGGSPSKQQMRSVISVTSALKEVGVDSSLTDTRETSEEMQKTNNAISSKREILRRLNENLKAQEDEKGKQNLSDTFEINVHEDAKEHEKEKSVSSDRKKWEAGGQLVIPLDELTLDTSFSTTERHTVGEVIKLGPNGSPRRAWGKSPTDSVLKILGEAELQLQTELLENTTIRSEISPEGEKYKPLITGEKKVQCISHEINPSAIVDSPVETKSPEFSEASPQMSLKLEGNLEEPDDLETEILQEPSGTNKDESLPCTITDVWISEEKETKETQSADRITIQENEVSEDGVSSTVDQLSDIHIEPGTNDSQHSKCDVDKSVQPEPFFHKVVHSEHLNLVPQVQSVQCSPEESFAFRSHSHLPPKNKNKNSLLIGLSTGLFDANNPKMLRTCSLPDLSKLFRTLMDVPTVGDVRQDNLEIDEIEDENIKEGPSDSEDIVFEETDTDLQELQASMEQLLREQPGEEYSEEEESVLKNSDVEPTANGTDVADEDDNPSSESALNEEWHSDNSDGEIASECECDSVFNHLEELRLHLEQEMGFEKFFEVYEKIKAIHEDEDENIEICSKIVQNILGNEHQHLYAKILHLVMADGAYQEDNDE

[4] = molecular target: Mast/stem cell growth factor receptor Kit (Homo sapiens, UniProt P10721); assay: Selectivity interaction (KinomeScan (DiscoverX)) EUB0000695a KIT; settings: at 100 nM
[5] = molecular target: Epithelial discoidin domain-containing receptor 1 (Homo sapiens) (UniProt Q08345); assay: Selectivity interaction (KinomeScan (DiscoverX)) EUB0000092b DDR1; settings: at 10 µM
Chain of Epithelial discoidin domain-containing receptor 1 (Homo sapiens) (Q08345 whole entry, the tested form may be a part): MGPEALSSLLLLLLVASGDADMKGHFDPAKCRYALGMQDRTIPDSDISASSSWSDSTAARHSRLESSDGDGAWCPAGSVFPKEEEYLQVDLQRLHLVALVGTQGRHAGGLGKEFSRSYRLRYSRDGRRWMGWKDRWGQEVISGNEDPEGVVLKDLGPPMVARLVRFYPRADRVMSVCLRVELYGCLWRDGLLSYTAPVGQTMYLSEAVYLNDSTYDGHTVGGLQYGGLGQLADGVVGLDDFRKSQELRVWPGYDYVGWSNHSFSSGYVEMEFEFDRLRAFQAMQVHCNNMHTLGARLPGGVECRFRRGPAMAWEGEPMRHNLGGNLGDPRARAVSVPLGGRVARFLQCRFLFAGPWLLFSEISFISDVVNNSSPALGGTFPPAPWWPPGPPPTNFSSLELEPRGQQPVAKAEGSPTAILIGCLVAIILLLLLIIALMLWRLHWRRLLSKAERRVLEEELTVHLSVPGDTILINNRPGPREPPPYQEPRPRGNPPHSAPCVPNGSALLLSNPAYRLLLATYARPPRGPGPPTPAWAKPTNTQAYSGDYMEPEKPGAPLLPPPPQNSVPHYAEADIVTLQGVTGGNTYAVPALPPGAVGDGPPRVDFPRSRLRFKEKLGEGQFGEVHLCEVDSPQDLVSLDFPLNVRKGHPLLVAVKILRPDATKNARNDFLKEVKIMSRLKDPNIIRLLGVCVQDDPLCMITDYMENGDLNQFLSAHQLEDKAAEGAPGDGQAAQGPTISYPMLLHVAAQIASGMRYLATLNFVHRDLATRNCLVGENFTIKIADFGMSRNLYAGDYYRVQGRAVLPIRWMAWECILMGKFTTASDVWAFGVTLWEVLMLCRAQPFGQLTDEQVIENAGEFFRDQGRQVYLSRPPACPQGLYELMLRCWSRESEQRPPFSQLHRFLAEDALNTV

[6] = molecular target: Insulin-like growth factor 1 receptor (Homo sapiens, UniProt P08069); assay: Selectivity interaction (Upstate Kinase Profiler service (Millipore)) EUB0000056c IGF1R; settings: at 1 µM
Chain of Insulin-like growth factor 1 receptor (P08069 31-736 limits assumed): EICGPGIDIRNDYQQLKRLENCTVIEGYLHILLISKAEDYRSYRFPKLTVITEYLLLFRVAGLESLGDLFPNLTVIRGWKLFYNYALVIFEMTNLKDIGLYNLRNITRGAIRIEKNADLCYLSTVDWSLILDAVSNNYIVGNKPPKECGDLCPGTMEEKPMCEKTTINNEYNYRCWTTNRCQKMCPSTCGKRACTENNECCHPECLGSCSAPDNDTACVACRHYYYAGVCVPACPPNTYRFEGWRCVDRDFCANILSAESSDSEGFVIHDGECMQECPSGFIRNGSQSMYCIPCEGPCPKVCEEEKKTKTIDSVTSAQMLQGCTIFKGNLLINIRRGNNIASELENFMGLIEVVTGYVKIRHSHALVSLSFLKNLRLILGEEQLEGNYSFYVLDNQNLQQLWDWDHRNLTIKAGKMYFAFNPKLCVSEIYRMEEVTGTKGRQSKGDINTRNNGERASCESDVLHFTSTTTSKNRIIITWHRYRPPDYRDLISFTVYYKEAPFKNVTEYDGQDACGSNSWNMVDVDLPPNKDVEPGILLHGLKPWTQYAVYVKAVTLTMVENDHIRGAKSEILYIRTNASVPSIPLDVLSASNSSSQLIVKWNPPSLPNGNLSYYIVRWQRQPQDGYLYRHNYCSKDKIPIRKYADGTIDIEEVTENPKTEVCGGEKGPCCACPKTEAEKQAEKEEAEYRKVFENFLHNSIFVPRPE
Chain of Insulin-like growth factor 1 receptor (P08069 741-1367 limits assumed): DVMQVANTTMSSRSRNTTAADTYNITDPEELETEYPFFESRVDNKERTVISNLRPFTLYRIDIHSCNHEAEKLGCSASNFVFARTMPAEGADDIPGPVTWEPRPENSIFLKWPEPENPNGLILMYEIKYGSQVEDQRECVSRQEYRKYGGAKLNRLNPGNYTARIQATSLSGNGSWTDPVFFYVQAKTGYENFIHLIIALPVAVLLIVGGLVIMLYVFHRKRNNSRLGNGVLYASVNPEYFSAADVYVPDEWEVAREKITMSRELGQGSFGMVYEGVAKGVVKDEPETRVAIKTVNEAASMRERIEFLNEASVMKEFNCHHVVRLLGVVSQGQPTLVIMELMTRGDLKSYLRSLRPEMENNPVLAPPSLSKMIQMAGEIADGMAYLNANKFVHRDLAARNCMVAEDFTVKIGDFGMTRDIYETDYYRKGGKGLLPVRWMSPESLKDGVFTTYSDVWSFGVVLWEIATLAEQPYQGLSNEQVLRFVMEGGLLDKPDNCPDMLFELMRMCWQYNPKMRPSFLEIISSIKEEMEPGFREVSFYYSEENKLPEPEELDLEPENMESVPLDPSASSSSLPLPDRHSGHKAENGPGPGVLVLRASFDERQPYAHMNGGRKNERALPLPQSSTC

[7] = molecular target: T2, Serine/threonine-protein kinase D1 (Homo sapiens) (UniProt Q15139); assay: Selectivity interaction (KinomeScan (DiscoverX)) EUB0000045b PRKD1
T2 sequence (whole entry): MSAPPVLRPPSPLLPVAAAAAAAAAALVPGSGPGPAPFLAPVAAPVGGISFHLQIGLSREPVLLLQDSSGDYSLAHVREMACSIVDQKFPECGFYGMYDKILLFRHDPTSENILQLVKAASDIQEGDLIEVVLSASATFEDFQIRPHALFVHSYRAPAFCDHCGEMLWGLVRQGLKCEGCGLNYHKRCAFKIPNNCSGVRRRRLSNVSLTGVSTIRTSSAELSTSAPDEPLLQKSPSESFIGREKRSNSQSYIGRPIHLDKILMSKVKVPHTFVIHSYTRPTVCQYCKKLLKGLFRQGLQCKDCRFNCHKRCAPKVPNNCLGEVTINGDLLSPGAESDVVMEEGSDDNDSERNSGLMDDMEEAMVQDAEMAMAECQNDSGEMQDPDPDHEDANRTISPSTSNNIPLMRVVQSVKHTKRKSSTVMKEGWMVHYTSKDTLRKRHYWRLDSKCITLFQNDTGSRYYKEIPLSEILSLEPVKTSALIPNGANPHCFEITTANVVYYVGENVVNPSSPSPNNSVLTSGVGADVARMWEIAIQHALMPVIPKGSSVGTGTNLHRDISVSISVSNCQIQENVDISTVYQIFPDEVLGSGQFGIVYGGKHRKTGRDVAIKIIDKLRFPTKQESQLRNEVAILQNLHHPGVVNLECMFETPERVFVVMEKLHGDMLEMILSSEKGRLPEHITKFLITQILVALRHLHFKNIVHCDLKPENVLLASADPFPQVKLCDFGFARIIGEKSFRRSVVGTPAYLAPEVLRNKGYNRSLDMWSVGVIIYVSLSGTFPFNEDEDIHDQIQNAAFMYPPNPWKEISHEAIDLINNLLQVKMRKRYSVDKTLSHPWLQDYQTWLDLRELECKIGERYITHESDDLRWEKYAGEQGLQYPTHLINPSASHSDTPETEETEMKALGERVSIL

[8] = molecular target: Dual specificity protein kinase CLK3 (Homo sapiens, UniProt P49761); assay: Selectivity interaction (KinomeScan (DiscoverX)) EUB0000655a CLK3; settings: at 10 µM
Chain of Dual specificity protein kinase CLK3 (P49761 whole entry, looked up): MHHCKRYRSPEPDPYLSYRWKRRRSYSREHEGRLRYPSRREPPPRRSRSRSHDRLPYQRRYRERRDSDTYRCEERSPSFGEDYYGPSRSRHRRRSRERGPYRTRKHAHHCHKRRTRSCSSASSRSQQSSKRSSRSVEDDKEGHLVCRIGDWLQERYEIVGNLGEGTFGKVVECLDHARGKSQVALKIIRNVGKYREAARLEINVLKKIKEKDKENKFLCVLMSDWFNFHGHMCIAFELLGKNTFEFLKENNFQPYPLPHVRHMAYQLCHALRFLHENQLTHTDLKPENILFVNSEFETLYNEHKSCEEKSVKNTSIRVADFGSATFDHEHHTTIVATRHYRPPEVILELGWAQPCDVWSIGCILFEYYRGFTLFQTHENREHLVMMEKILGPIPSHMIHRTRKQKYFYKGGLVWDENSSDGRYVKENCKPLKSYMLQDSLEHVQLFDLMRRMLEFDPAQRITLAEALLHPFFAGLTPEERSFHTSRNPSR

[9] = molecular target: Bone morphogenetic protein receptor type-1B (Homo sapiens, UniProt O00238); assay: Selectivity interaction (KinomeScan (DiscoverX)) EUB0001619a BMPR1B; settings: at 1 µM
Chain of Bone morphogenetic protein receptor type-1B (O00238 whole entry): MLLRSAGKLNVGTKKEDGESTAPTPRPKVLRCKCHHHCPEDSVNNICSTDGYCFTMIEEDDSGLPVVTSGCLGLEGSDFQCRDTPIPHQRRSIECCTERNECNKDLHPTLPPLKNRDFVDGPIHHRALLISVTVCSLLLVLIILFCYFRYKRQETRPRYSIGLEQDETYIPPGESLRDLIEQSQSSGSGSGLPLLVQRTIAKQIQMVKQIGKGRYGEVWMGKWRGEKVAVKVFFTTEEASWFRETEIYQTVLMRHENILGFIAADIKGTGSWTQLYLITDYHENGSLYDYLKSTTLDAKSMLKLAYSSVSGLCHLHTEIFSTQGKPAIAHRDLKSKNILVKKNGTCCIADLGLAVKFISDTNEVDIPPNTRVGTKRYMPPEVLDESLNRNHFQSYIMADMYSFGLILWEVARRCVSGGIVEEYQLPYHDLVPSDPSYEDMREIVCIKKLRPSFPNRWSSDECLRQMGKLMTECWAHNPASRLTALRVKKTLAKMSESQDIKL

[10] = molecular target: Ribosomal protein S6 kinase alpha-5 (Homo sapiens) (UniProt O75582); assay: Selectivity interaction (KinomeScan (DiscoverX)) EUB0000618a RPS6KA5; settings: at 10 µM
Chain of Ribosomal protein S6 kinase alpha-5 (Homo sapiens) (O75582 whole entry, looked up): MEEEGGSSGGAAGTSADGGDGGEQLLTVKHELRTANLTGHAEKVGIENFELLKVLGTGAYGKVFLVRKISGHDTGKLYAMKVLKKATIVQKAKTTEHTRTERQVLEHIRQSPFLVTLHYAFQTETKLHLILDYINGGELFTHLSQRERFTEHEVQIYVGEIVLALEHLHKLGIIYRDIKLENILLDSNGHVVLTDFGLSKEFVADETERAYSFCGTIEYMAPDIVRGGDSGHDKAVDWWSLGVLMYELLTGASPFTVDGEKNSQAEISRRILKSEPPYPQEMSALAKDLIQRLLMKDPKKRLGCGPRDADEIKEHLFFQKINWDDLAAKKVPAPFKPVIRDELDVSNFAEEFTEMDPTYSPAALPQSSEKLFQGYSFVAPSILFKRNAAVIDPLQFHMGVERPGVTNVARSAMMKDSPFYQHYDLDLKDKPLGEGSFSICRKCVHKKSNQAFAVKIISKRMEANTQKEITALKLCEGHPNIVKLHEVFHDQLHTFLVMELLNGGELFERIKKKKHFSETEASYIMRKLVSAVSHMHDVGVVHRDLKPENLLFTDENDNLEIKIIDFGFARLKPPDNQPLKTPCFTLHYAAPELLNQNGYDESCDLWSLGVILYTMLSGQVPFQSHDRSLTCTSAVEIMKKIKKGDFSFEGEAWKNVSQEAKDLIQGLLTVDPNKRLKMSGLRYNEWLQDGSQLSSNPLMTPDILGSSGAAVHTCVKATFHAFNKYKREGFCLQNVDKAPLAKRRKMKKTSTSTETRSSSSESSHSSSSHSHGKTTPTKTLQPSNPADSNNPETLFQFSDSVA

SMILES: CC[C@@H]1[C@H](F)C(=O)N[C@@H]1COc1nccc2cc(C(N)=O)c(OC)cc12 [ZIMLOVISERTIB]
- % of inhibition [1]: 1.7%
- % of inhibition ([2]; at 0.01 µM): 26.8%
- % of inhibition ([2]; at 0.04 µM): 32.4%
- % of inhibition ([2]; at 0.2 µM): 38.8%
- % of inhibition ([2]; at 1 µM): 14.3%
- % of inhibition ([2]; at 5 µM): 19.9%
- % of inhibition [3]: 10.2%

SMILES: Cc1cc(F)c(C(=O)Nc2cccc(-c3nncn3C(C)C)n2)cc1-n1cnc(C2CC2)c1
- % of control [4]: 100%

SMILES: CCC(=O)N1CCN(c2ccc(-n3c(=O)ccc4cnc5ccc(-c6cnc7ccccc7c6)cc5c43)cc2C(F)(F)F)CC1
- % of control [5]: 100%

SMILES: Cc1ccc(-c2ccc3c(ccc4sc5c(c43)NC[C@@H](C)NC5=O)n2)cn1
- % of inhibition [6]: 0%

SMILES: C=CC(=O)Nc1cc(-n2c(=O)ccc3cnc4ccc(-c5ccc(NS(C)(=O)=O)cc5)cc4c32)ccc1C
- % of control ([7]; at 1 µM): 100%
- % of control ([7]; at 10 µM): 84%

SMILES: CN(C)CCOc1ccc(-c2nc(-c3ccncc3)c(-c3ccc4c(c3)CC/C4=N\O)[nH]2)cc1
- % of control [8]: 98%

SMILES: N#Cc1cccc(-c2c[nH]c3ncnc(N4CCOCC4)c23)c1
- % of control [9]: 31%

SMILES: O[C@H]1CC[C@H](Nc2ncc3nc(Nc4c(F)cc(F)cc4F)n([C@H]4CCOC4)c3n2)CC1
- % of control [10]: 68%
